Like-named read-outs stand apart in the source and are kept apart here. Each block holds one compound with its values, some of them ahead of it.
What was measured:
[1] = test system: Neuro2A (N2A) cells; experiment: Cytotoxicity, Alamar Blue cell viability assay; assay type: cell-based, Mouse
[2] = biological target: Cu^2+–Aβ42 species (Homo sapiens, UniProt P05067); experiment: H2O2 production, HRP/Amplex Red assay; assay type: biochemical; conditions: reducing conditions (sodium ascorbate)
[3] = 1:1 metal:ligand, 50 μM each, ref [78], cited from earlier work
[4] = pH 7.4; 1:1 metal:ligand, 50 μM each; ref [78]; cited from earlier work

Chain of Cu^2+–Aβ42 species (P05067 672-713 limits assumed): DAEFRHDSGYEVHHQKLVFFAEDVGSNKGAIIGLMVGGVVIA

Compound: Oc1c(I)cc(Cl)c2cccnc12 [CQ, clioquinol]
Cell survival, disaggregation conditions ([1]; Aβ42 fibrils 20 μM + compound 2 μM + Cu^2+ 20 μM): marked cell toxicity
Cell survival ([1]; concentrations >2 μM): < 30%
Reduction of H2O2 production by Cu–Aβ42 species [2]: almost no effect

Compound: O=C(O)CN(CCN(CC(=O)O)CC(=O)O)CCN(CC(=O)O)CC(=O)O [DTPA, diethylenetriaminepentaacetic acid]
pCu (−log[Cu^2+]free) ([3]; pH 6.6): 9.7
pCu (−log[Cu^2+]free) ([3]; pH 7.4): 10.7
pZn (−log[Zn^2+]free) [4]: 9.3

Compound: O=C(O)CN(CCN(CC(=O)O)CC(=O)O)CC(=O)O [EDTA, ethylenediaminetetraacetic acid]
Cell survival ([1]; up to 20 μM concentration): 90–95%

Results, then the compound that gave them:

Reduction of H2O2 production by Cu–Aβ42 species [2]: dramatic reduction
Compound: CN(Cc1ccccn1)Cc1ccccn1 [L*, N-methyl-N,N-bis(2-pyridylmethyl)amine]

Reduction of H2O2 production by Cu–Aβ42 species [2]: almost no effect
Compound: c1cnc2c(c1)ccc1cccnc12 [phen, phenanthroline]

Source: PMC3368506 (Journal of the American Chemical Society, 2012)
